Measurements published in patent US9504672B2, “Compositions and methods for treating or preventing pneumovirus infection and associated diseases” (MicroDose Therapeutx, Inc., priority 2012, dated 2016).
Where two headings read alike, the source gives them in different places.

Columns and labels:
clinical = conditions: human, in vivo, 132 ug
Protocol: (§2) Subjects were enrolled in cohorts of 12 subjects. […] The study consisted of 3 visits: Visit 1 (Screening), Visit 2 (Dosing), Visit 3 (Follow up) and subjects remained at the study site for pharmacokinetic (PK) sampling, spirometry, and safety assessments. […] Day 1 was the first day of dosing and Day 10 was the final day of dosing, following which subjects remained at the study site for 24 hours following the last dose for PK sampling and spirometry. Visit 3 was a follow-up visit, 7 to 10 days after the last dose. Cohorts were dosed as follows:
(§3) The first doses for twice daily (BID) and three times daily (TID) were administered in the morning, starting at approximately 0700 hours on each day of dosing. BID doses were administered at 12 hour intervals and TID doses were administered at 6 hour intervals each dose day.
(§4) Pharmacokinetic endpoints (Cmax, Tmax, AUC, T1/2) and dose proportionality was assessed based on a limited number of plasma samples following the first dose on Day 1 and last dose on Day 10
(§5) Pharmacokinetic variables (Cmax, Tmax, AUC, T1/2) were evaluated based on blood samples drawn following first dose (Days 1-2) and last dose (Days 10-11).

[1] = human, in vivo
Protocol: as §2, §3, §4, §5

[2] = Bulk powder density and flow indices (volumetric); format: physicochemical
[3] = Slurry of equal mixture of six phases in 75/25 acetone-water (PXRD); format: physicochemical; conditions: 25° C., 12 days, listed as P-3
Protocol: An equal powder mixture of six known phases (P-2, P-3, P-4, P-6, P-7 and P-8), 50 mg each were stirred in 75/25 acetone-water solvent (50 mL) at 25° C. over 12 days.

[4] = Specific surface area (BET); format: physicochemical
[5] = 40° C./75% RH, 4 weeks
[6] = human, in vivo; remark: listed apart in the source
Protocol: The study consisted of 3 visits: Visit 1 (Screening), Visit 2 (Dosing) and Visit 3 (Follow up); subjects furloughed from the clinic between Visits 2 and 3.
Both active and matched placebo were administered via face mask inhalation from a proprietary delivery system (MicroDose inhaler).
Single doses were administered in the morning. TID doses will be administered at 6 hour intervals, with the 1st of the 3 doses administered in the morning.
Pharmacokinetic variables (Cmax, Tmax, AUC, T1/2) were evaluated based on blood samples drawn at Visit 2.

[7] = Storage stability of micronized API in amber glass bottles (DSC, PXRD); format: physicochemical; conditions: 25° C./60% RH and 40° C./75% RH, through 12 months
Protocol: The micronized, P-3 dihydrate material was stored in 1.85 mL amber bottles with Teflon lined caps. The 25° C./60% RH and 40° C./75% RH simulated storage and worst-case storage conditions correspondingly.

[8] = human, in vivo; remark: listed apart in the source
Excerpt: (§1) In summary, the MicroDose Inhaler operation comprises the drug powder contained in a protective blister until delivery. The blister is pierced externally and then placed in contact with a piezoelectric vibrator within the MicroDose Inhaler. When the patient inhales, an airflow sensor automatically turns on the piezo which provides energy to deaggregate the particles of powder and aerosolizes them into the inhalation airstream, providing synchronized delivery. The MicroDose Inhaler was triggered by pressure drop and programmed to produce a series of brief aerosol bursts of predetermined duration within the range of 0.1 to 2.0 seconds, preferably 0.1 seconds, early during each inhalation cycle and for 16 consecutive breaths. The studies were conducted as follows:
Study 3: A Double-Blind, Randomized, 3 Period Crossover, Single Ascending Dose Study to Assess the Safety and Tolerability of Inhaled MDT-637 P3 in Subjects with Intermittent or Mild-to-Moderate Persistent Asthma (Asthma Trial)
The primary objective of Study 3 was to assess the safety and tolerability of MDT-637 P3 when inhaled by subjects with Intermittent, or Mild-to-Moderate Persistent, Asthma. A secondary objective of Study 3 was to determine the rate and extent of systemic absorption of MDT-637 and trough nasal wash MDT-637 drug concentrations following dry powder inhalation dosing.
Each subject was dosed on 3 separate days during the study. Each subject received an initial dose of placebo (Period 1), followed by random allocation at Period 2 to a single dose of nasally inhaled MDT-637 P3 or double blind placebo. After an observation and furlough period, subjects returned for Period 3 to receive three doses of study drug (MDT-637 P3 or placebo) over a single day as listed below. The study consisted of 5 visits: Visit 1 (Screening), Visits 2, 3 and 4 (Dosing), and Visit 5 (Follow up); subjects were furloughed from the clinic for 6 up to 14 days between Visits 3 and 4 and 7-8 days between Visit 4 and 5. Subjects who met all of the inclusion criteria and none of the exclusion criteria (Table 19, FIG. 29) at Visit 1 were eligible to return for Visit 2 within 42 days of screening. Subjects were admitted to the study center twice, once for Visit 2 and again for Visit 4. Visit 5, was a safety follow up (outpatient) visit.
The doses of MDT-637 P3 were determined based on previous clinical experience in Study 1. Both placebo and active were administered as a dry powder for nasal inhalation via a face mask using a MicroDose Inhaler device. At Visit 2, all 10 patients were dosed with placebo Once Daily. At Visit 3, subjects were randomly allocated so that 8 subjects were dosed with MDT-637 P3 Once Daily 66 mcg and 2 subjects received double blind placebo. At Visit 4, subjects were again randomly allocated so that 8 subjects were dosed with MDT-637 TID 132 mcg and 2 subjects received double blind placebo.
Pharmacokinetic variables (Cmax, Tmax, AUC, T1/2) were evaluated based on blood samples drawn at Visit 4.

[9] = Stability of lactose formulation at 40° C./75% RH, sealed glass bottles, 39 weeks; format: physicochemical; conditions: lactose formulation 6.3% w/w
Protocol: Formulation of the P-3 dihydrate form of the API with lactose (6.3% w/w) was placed on stability 40° C./75% RH in sealed glass bottles for 39 weeks. After samples removal, the lactose was removed by dissolution in purified water. The reference formulation was also subjected to the same lactose extraction procedure to eliminate the possibility for form conversion in water.

[10] = Competitive slurry stability study between P-2 and P-3 (PXRD quantitative phase analysis); format: physicochemical; conditions: 50/50 acetonitrile/water, 25° C., over 10 days
[11] = Particle size of micronized material (Sympatec HELOS & RODOS); format: physicochemical
[12] = in vivo
Excerpt: The purpose of the following studies was to assess the safety, tolerability, local and systemic pharmacokinetics of single and multiple doses of MDT-637 P3 in healthy volunteers and asthmatics.
as §1, with “breaths.” for “breaths. The studies were conducted as follows:”

[13] = Crystal (skeletal) density by nitrogen pycnometry; format: physicochemical
[14] = for Total Imp/Deg: listed as P224-163-1; for number of impurity peaks: listed as P-3
Protocol: Forced degradation experiments consisted of placing solid samples of P-2 hydrate and P-3 dihydrate materials in sealed glass bottles at 120° C. for 7 days.

[15] = Critical water activity by DVS sorption/desorption isotherms; format: physicochemical; conditions: 20° C.
Excerpt: The characteristic gravimetric loss of water is between 1-4.5% w/w.
The characteristic gravimetric loss of water for P-3 dihydrate is between 5.5-8.5% w/w. The profound difference of the DVS curves between the P-2 and P-3 forms can be utilized as a secondary technique for quantitative phase analysis of these forms.

Cc1nnnn1/N=C/c1ccc(O)c(C(c2ccc(O)cc2)c2cc(/C=N/n3nnnc3C)ccc2O)c1 [P-3 dihydrate, phenol, 2,2′-[(4-hydroxyphenyl)methylene]bis[4-[[(5-methyl-1H-tetrazol-1-yl)imino]methyl]]]
AUC(0-t) (clinical): 1.16 ng·h/mL | CVs of PK exposure [1]: 15-30% | clinically significant changes in labs, vital signs, ECGs, physical exams [1]: No clinically significant changes | TEAEs considered related to study treatment ([1]; 10 days): 5 TEAEs | subjects reporting TEAEs ([1]; 10 days): 13 subjects | subjects reporting no TEAEs ([1]; 10 days): 25 subjects | total TEAEs overall ([1]; 10 days): 20 TEAEs | Carr index [2]: 27.5% | Hausner ratio [2]: 1.38 | Poured bulk powder density [2]: 0.22 g/mL | Tapped bulk powder density [2]: 0.30 g/mL | form conversion / stability in six-phase slurry [3]: convert to P-2 hydrate | Specific surface area [4]: 11.0 m^2/g | Assay ([5]; open dish, listed as P-3): 96.7% | Rel Subs ([5]; open dish, listed as P-3): 0.67% | Water ([5]; open dish, listed as P-3): 5.9% | change of form / solid-state stability (DSC and PXRD) ([5]; open wide glass bottles): no change of form | chemical stability ([5]; open wide glass bottles): Acceptable chemical stability | changes in pulmonary function / pulmonary AEs [6]: No significant changes in pulmonary function or reports of pulmonary AEs | clinically significant changes in labs, vital signs, ECGs, physical exams [6]: No clinically significant changes | treatment emergent adverse event considered possibly related by PI [6]: Mild dizziness | nasal wash levels ([6]; 24 h): > MDT-637 P3's IC50 for RSV | change in form (DSC and PXRD) [7]: no change in form was observed | clinically significant changes in labs, vital signs, ECGs, physical exams [8]: No clinically significant changes | clinically significant changes in pulmonary function / pulmonary AEs [8]: No clinically significant changes in pulmonary function or reports of pulmonary AEs | pharmacokinetics, asthmatic vs healthy population [8]: comparable between the healthy and asthmatic population | subjects reporting adverse events ([8]; 3 separate dosing days): 2/10 | subjects reporting no adverse events ([8]; 3 separate dosing days): 8/10 | change of crystal form in formulation with lactose [9]: stable against solid-state conversion | form conversion in competitive slurry [10]: converts to P-2 | Characteristic medium volume particle size (micronized) [11]: 1.5 μm | clinically significant changes in ECG, laboratory values, vital signs or physical exam [12]: no clinically significant changes | pulmonary adverse events or changes in pulmonary function [12]: no pulmonary adverse events or changes in pulmonary function were observed | serious adverse events [12]: no serious adverse events were observed | systemic exposure [12]: highly consistent and low systemic exposure | Crystal (skeletal) density [13]: 1.61 g/mL | Grand Total ([14]; 120C/7D): 99.8 Area % | Total Imp/Deg ([14]; 120C/7D): 6.49 Area % | Impurity/Degradation Product A ([14]; 7 days): 0.12 Area % | Impurity/Degradation Product B ([14]; 7 days): 3.60 Area % | Impurity/Degradation Product C ([14]; 7 days): 0.17 Area % | Impurity/Degradation Product D ([14]; 7 days): 0.48 Area % | Impurity/Degradation Product E ([14]; 7 days): 0.28 Area % | Impurity/Degradation Product F ([14]; 7 days): 0.08 Area % | Impurity/Degradation Product G ([14]; 7 days): 0.05 Area % | Impurity/Degradation Product H ([14]; 7 days): 0.43 Area % | Impurity/Degradation Product I ([14]; 7 days): 0.17 Area % | Impurity/Degradation Product K ([14]; 7 days): 0.13 Area % | Impurity/Degradation Product L ([14]; 7 days): 0.06 Area % | Impurity/Degradation Product M ([14]; 7 days): 0.09 Area % | Impurity/Degradation Product N ([14]; 7 days): 0.07 Area % | Impurity/Degradation Product O ([14]; 7 days): 0.37 Area % | Impurity/Degradation Product P ([14]; 7 days): 0.36 Area % | Impurity/Degradation Product Q ([14]; 7 days): 0.05 Area % | Grand Total ([14]; CTRL): 99.9 Area % | Total Imp/Deg ([14]; CTRL): 1.16 Area % | number of impurity peaks ([14]; control): 6 peaks | number of impurity peaks ([14]; stressed sample, 120° C. for 7 days): 16 peaks | transition point (monohydrate) ([15]; 1% RH steps, first of two transition points): approximately 3 % RH | transition point (dihydrate) ([15]; 1% RH steps, second of two transition points): ~13 % RH | Characteristic relative humidity of dehydration (20° C.) [15]: 3-17%
